Laboratory results reported in PubChem BioAssay (NCI).
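Five compound concentrations were applied to cells in 96-well plates for 48 hours; endpoints were derived by simple linear interpolation of the resulting dose-response curve. TGI marks complete inhibition of growth.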

How the values were obtained:
Assay in all cases: inhibition of tumour cell growth, NCI panel, 48 h
[1] = system: SF-268 CNS
[2] = system: LOX IMVI melanoma
[3] = system: HT29 colon
[4] = system: K-562 leukemia
[5] = system: COLO 205 colon
[6] = system: NCI/ADR-RES ovarian
[7] = system: HL-60(TB) leukemia
[8] = system: HCT-116 colon
[9] = system: HOP-62 NSCLC
[10] = system: UO-31 renal
[11] = system: NCI-H23 lung
[12] = system: SK-MEL-2 melanoma
[13] = system: PC-3 prostate
[14] = system: BT-549 breast
[15] = system: EKVX NSCLC
[16] = system: NCI-H460 lung
[17] = system: SNB-75 CNS
[18] = system: M14 melanoma
[19] = system: OVCAR-4 ovarian
[20] = system: A498 renal
[21] = system: SF-539 CNS
[22] = system: OVCAR-3 ovarian
[23] = system: A549 NSCLC
[24] = system: U251 CNS
[25] = system: SK-OV-3 ovarian
[26] = system: 786-0 renal
[27] = system: MDA-N
[28] = system: HS 578T breast
[29] = system: SNB-19 CNS
[30] = system: SF-295 CNS
[31] = system: T-47D breast
[32] = system: MDA-MB-435
[33] = system: HCT-15 colon
[34] = system: SK-MEL-28 melanoma
[35] = system: ACHN renal
[36] = system: KM12 colon
[37] = system: CAKI-1 renal
[38] = system: SR leukemia
[39] = system: UACC-62 melanoma
[40] = system: TK-10 renal
[41] = system: SK-MEL-5 melanoma
[42] = system: DU-145 prostate
[43] = system: HCC-2998 colon
[44] = system: RPMI-8226 leukemia
[45] = system: OVCAR-8 ovarian
[46] = system: MDA-MB-231 breast
[47] = system: CCRF-CEM leukemia
[48] = system: NCI-H522 lung
[49] = system: SW-620 colon
[50] = system: MOLT-4 leukemia
[51] = system: IGROV1 ovarian
[52] = system: RXF 393 renal
[53] = system: OVCAR-5 ovarian
[54] = system: MALME-3M melanoma
[55] = system: NCI-H226 lung
[56] = system: SN12C renal
[57] = system: HOP-92 NSCLC
[58] = system: MCF7 breast
[59] = system: UACC-257 melanoma

CCC1(CC)C(=O)OC(=O)C1(CC)CC
TGI [1]: > 100 µM | TGI [2]: > 100 µM | TGI [3]: > 100 µM | TGI [4]: > 100 µM | TGI [5]: > 100 µM | TGI [6]: > 100 µM | TGI [7]: > 100 µM | TGI [8]: > 100 µM | TGI [9]: > 100 µM | TGI [10]: > 100 µM | TGI [11]: > 100 µM | TGI [12]: > 100 µM | TGI [13]: > 100 µM | TGI [14]: > 100 µM | TGI [15]: > 100 µM | TGI [16]: > 100 µM | TGI [17]: > 100 µM | TGI [18]: > 100 µM | TGI [19]: > 100 µM | TGI [20]: > 100 µM | TGI [21]: > 100 µM | TGI [22]: > 100 µM | TGI [23]: > 100 µM | TGI [24]: > 100 µM | TGI [25]: > 100 µM | TGI [26]: > 100 µM | TGI [27]: > 100 µM | TGI [28]: > 100 µM | TGI [29]: > 100 µM | TGI [30]: > 100 µM | TGI [31]: > 100 µM | TGI [32]: > 100 µM | TGI [33]: > 100 µM | TGI [34]: > 100 µM | TGI [35]: > 100 µM | TGI [36]: > 100 µM | TGI [37]: > 100 µM | TGI [38]: > 100 µM | TGI [39]: > 100 µM | TGI [40]: > 100 µM | TGI [41]: > 100 µM | TGI [42]: > 100 µM | TGI [43]: > 100 µM | TGI [44]: > 100 µM | TGI [45]: > 100 µM | TGI [46]: > 100 µM | TGI [47]: > 100 µM | TGI [48]: > 100 µM | TGI [49]: > 100 µM | TGI [50]: > 100 µM | TGI [51]: > 100 µM

O=C1CC(=O)NC(=NN2C(=O)/C(=C/C(=O)c3ccco3)N=C2c2ccccc2)N1
TGI [1]: > 100 µM | TGI [3]: > 100 µM | TGI [52]: > 100 µM | TGI [5]: > 100 µM | TGI [6]: > 100 µM | TGI [8]: > 100 µM | TGI [9]: > 100 µM | TGI [10]: > 100 µM | TGI [53]: > 100 µM | TGI [54]: > 100 µM | TGI [11]: > 100 µM | TGI [55]: > 100 µM | TGI [56]: > 100 µM | TGI [12]: > 100 µM | TGI [13]: > 100 µM | TGI [57]: > 100 µM | TGI [14]: > 100 µM | TGI [16]: > 100 µM | TGI [17]: > 100 µM | TGI [18]: > 100 µM | TGI [19]: > 100 µM | TGI [20]: > 100 µM | TGI [21]: > 100 µM | TGI [22]: > 100 µM | TGI [58]: > 100 µM | TGI [23]: > 100 µM | TGI [24]: > 100 µM | TGI [25]: > 100 µM | TGI [26]: > 100 µM | TGI [27]: > 100 µM | TGI [28]: > 100 µM | TGI [30]: > 100 µM | TGI [31]: > 100 µM | TGI [32]: > 100 µM | TGI [59]: > 100 µM | TGI [33]: > 100 µM | TGI [34]: > 100 µM | TGI [35]: > 100 µM | TGI [36]: > 100 µM | TGI [37]: > 100 µM | TGI [38]: 41.3 µM | TGI [39]: > 100 µM | TGI [40]: > 100 µM | TGI [42]: > 100 µM | TGI [43]: > 100 µM | TGI [45]: > 100 µM | TGI [46]: > 100 µM | TGI [47]: 51.7 µM | TGI [48]: 79.8 µM | TGI [49]: > 100 µM | TGI [50]: 60.7 µM | TGI [51]: > 100 µM
